Like-named read-outs stand apart in the source and are kept apart here. Non-standard residues stand in square brackets, D forms with d. Residues, ends and D or L forms follow the SMILES beside them. *: point of attachment. alloThr(PO3H2) = C[C@H](OP(=O)(O)O)[C@H](N)C(=O)O; Phe(4-CONH2) = NC(=O)c1ccc(C[C@H](N)C(=O)O)cc1; Bpa = N[C@@H](Cc1ccc(C(=O)c2ccccc2)cc1)C(=O)O; 2Nal = N[C@@H](Cc1ccc2ccccc2c1)C(=O)O; Met(O2) = CS(=O)(=O)CC[C@H](N)C(=O)O; β3hE = N[C@@H](CCC(=O)O)CC(=O)O; Cha = N[C@@H](CC1CCCCC1)C(=O)O; Cit = NC(=O)NCCC[C@H](N)C(=O)O; aThr = C[C@H](O)[C@H](N)C(=O)O; Pip = O=C(O)[C@@H]1CCCCN1; Ac6c = NC1(C(=O)O)CCCCC1; 2Abz = Nc1ccccc1C(=O)O; ClAc = O=C(CCl)*
Biological target: Pin1 (GST-Pin1) (Homo sapiens, UniProt Q13526)
Sequence (Q13526 whole entry): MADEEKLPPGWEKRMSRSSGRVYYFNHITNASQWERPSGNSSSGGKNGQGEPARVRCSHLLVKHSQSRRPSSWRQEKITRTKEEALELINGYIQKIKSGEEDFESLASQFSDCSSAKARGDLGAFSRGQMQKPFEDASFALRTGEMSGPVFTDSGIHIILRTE
Experiment: Fluorescence polarization (FP) assay, binding to Pin1
Settings: competition with fluorescein-labeled peptide probe, 12 hours pre-incubation at 4° C., Kenakin Ki equation

Row | Ki (read-out: Ki, μM (FP Assay)) [µM] | Compound | Ki (Ki, μM (FP Assay)) [µM]
1 | 0.074 | COC(=O)CC[C@H](NC(=O)CCl)C(=O)N1CCCC[C@H]1C(=O)N[C@@H](Cc1c[nH]c2ccccc12)C(=O)N[C@@H](CCCNC(N)=O)C(N)=O [Compound 2, Methyl (S)-5-((S)-2-(((S)-1-(((S)-1-amino-1-oxo-5-ureidopentan-2-yl)amino)-3-(1H-indol-3-yl)-1-oxopropan-2-yl)carbamoyl)piperidin-1-yl)-4-(2-chloroacetamido)-5-oxopentanoate] (ClAc-E(OMe)[Pip]W[Cit]-NH2) | 
2 | > 10 | NC(=O)CC[C@H](NC(=O)[C@H](Cc1ccc2ccccc2c1)NC(=O)[C@@H]1CCCCN1C(=O)[C@@H](CC(=O)O)NC(=O)CCl)C(N)=O [Compound 2-1, (R)-3-(2-Chloroacetamido)-4-((S)-2-(((S)-1-(((S)-1,5-diamino-1,5-dioxopentan-2-yl)amino)-3-(naphthalen-2-yl)-1-oxopropan-2-yl)carbamoyl)piperidin-1-yl)-4-oxobutanoic acid] (ClAc-[dD][Pip][2Nal]Q-NH2) | 
3 | > 10 | NC(=O)CC[C@H](NC(=O)[C@H](Cc1ccc2ccccc2c1)NC(=O)[C@@H]1CCCCN1C(=O)[C@H](CC(=O)O)NC(=O)CCl)C(N)=O [Compound 2-2, (S)-3-(2-Chloroacetamido)-4-((S)-2-(((S)-1-(((S)-1,5-diamino-1,5-dioxopentan-2-yl)amino)-3-(naphthalen-2-yl)-1-oxopropan-2-yl)carbamoyl)piperidin-1-yl)-4-oxobutanoic acid] (ClAc-D[Pip][2Nal]Q-NH2) | 
4 | > 10 | CS(=O)(=O)CC[C@H](NC(=O)CCl)C(=O)N1CCCC[C@H]1C(=O)N[C@@H](Cc1ccc2ccccc2c1)C(=O)N[C@@H](CCC(N)=O)C(N)=O [Compound 2-3, (S)-2-((S)-2-((S)-1-((S)-2-(2-Chloroacetamido)-4-(methylsulfonyl)butanoyl)piperidine-2-carboxamido)-3-(naphthalen-2-yl)propanamido)pentanediamide] (ClAc-[Met(O2)][Pip][2Nal]Q-NH2) | 
5 | 1.24 | C[C@H](OP(=O)(O)O)[C@H](NC(=O)CCl)C(=O)N1CCCC[C@H]1C(=O)N[C@@H](Cc1ccc2ccccc2c1)C(=O)N[C@@H](CCC(N)=O)C(N)=O [Compound 2-4, (2S,3S)-3-(2-Chloroacetamido)-4-((S)-2-(((S)-1-(((S)-1,5-diamino-1,5-dioxopentan-2-yl)amino)-3-(naphthalen-2-yl)-1-oxopropan-2-yl)carbamoyl)piperidin-1-yl)-4-oxobutan-2-yl dihydrogen phosphate] (ClAc-[alloThr(PO3H2)][Pip][2Nal]Q-NH2) | 
6 | 0.13 | C[C@H](OP(=O)(O)O)[C@H](NC(=O)CCl)C(=O)N1CCCC[C@H]1C(=O)N[C@@H](Cc1ccc2ccccc2c1)C(=O)N[C@@H](CCCNC(=N)N)C(N)=O [Compound 2-5, (2S,3S)-4-((S)-2-(((S)-1-(((S)-1-Amino-5-guanidino-1-oxopentan-2-yl)amino)-3-(naphthalen-2-yl)-1-oxopropan-2-yl)carbamoyl)piperidin-1-yl)-3-(2-chloroacetamido)-4-oxobutan-2-yl dihydrogen phosphate] (ClAc-[alloThr(PO3H2)][Pip][2Nal]R-NH2) | 
7 | 0.3 | C[C@H](O)[C@H](NC(=O)[C@H](Cc1ccc2ccccc2c1)NC(=O)[C@@H]1CCCCN1C(=O)[C@H](CCC(=O)O)NC(=O)CCl)C(N)=O [Compound 2-7, (S)-5-((S)-2-(((S)-1-(((2S,3S)-1-Amino-3-hydroxy-1-oxobutan-2-yl)amino)-3-(naphthalen-2-yl)-1-oxopropan-2-yl)carbamoyl)piperidin-1-yl)-4-(2-chloroacetamido)-5-oxopentanoic acid] (ClAc-E[Pip][2Nal][aThr]-NH2) | 
8 | 0.13 | NC(=O)C[C@H](NC(=O)[C@H](Cc1ccc2ccccc2c1)NC(=O)[C@@H]1CCCCN1C(=O)[C@H](CCC(=O)O)NC(=O)CCl)C(N)=O [Compound 2-8, (S)-4-(2-Chloroacetamido)-5-((S)-2-(((S)-1-(((S)-1,4-diamino-1,4-dioxobutan-2-yl)amino)-3-(naphthalen-2-yl)-1-oxopropan-2-yl)carbamoyl)piperidin-1-yl)-5-oxopentanoic acid] (ClAc-E[Pip][2Nal]N-NH2) | 
9 | 0.33 | NC(=O)c1ccc(C[C@H](NC(=O)[C@H](Cc2ccc3ccccc3c2)NC(=O)[C@@H]2CCCCN2C(=O)[C@H](CCC(=O)O)NC(=O)CCl)C(N)=O)cc1 [Compound 2-9, (S)-5-((S)-2-(((S)-1-(((S)-1-Amino-3-(4-carbamoylphenyl)-1-oxopropan-2-yl)amino)-3-(naphthalen-2-yl)-1-oxopropan-2-yl)carbamoyl)piperidin-1-yl)-4-(2-chloroacetamido)-5-oxopentanoic acid] (ClAc-E[Pip][2Nal][Phe(4-CONH2)]-NH2) | 
10 |  | NC(=O)NCCC[C@H](NC(=O)[C@H](Cc1ccc2ccccc2c1)NC(=O)C1(NC(=O)[C@H](CCC(=O)O)NC(=O)CCl)CCCCC1)C(N)=O [Compound 2-10, (S)-5-((1-(((S)-1-(((S)-1-Amino-1-oxo-5-ureidopentan-2-yl)amino)-3-(naphthalen-2-yl)-1-oxopropan-2-yl)carbamoyl)cyclohexyl)amino)-4-(2-chloroacetamido)-5-oxopentanoic acid] (ClAc-E[Ac6c][2Nal][Cit]-NH2) | > 10
11 | 0.106 | NC(=O)NCCC[C@H](NC(=O)[C@H](Cc1ccc2ccccc2c1)NC(=O)[C@@H]1CCCCN1C(=O)C[C@H](CCC(=O)O)NC(=O)CCl)C(N)=O [Compound 2-12, (S)-6-((S)-2-(((S)-1-(((S)-1-Amino-1-oxo-5-ureidopentan-2-yl)amino)-3-(naphthalen-2-yl)-1-oxopropan-2-yl)carbamoyl)piperidin-1-yl)-4-(2-chloroacetamido)-6-oxohexanoic acid] (ClAc-[β3hE][Pip][2Nal][Cit]-NH2) | 
12 | 0.13 | NC(=O)[C@H](Cc1c[nH]c2ccccc12)NC(=O)[C@H](Cc1ccc2ccccc2c1)NC(=O)[C@@H]1CCCCN1C(=O)[C@H](CCC(=O)O)NC(=O)CCl [Compound 2-13, (S)-5-((S)-2-(((S)-1-(((S)-1-Amino-3-(1H-indol-3-yl)-1-oxopropan-2-yl)amino)-3-(naphthalen-2-yl)-1-oxopropan-2-yl)carbamoyl)piperidin-1-yl)-4-(2-chloroacetamido)-5-oxopentanoic acid] (ClAc-E[Pip][2Nal]W-NH2) | 
13 | 0.13 | CS(=O)(=O)CC[C@H](NC(=O)CCl)C(=O)N1CCCC[C@H]1C(=O)N[C@@H](Cc1ccc2ccccc2c1)C(=O)N[C@@H](CCCNC(N)=O)C(N)=O [Compound 2-14, (S)—N—((S)-1-(((S)-1-Amino-1-oxo-5-ureidopentan-2-yl)amino)-3-(naphthalen-2-yl)-1-oxopropan-2-yl)-1-((S)-2-(2-chloroacetamido)-4-(methylsulfonyl)butanoyl)piperidine-2-carboxamide] (ClAc-[Met(O2)][Pip][2Nal][Cit]-NH2) | 
14 |  | NC(=O)NCCC[C@H](NC(=O)[C@H](Cc1ccc2ccccc2c1)NC(=O)[C@H](CC1CCCCC1)NC(=O)[C@H](CCC(=O)O)NC(=O)CCl)C(N)=O [Compound 2-15, (6S,9S,12S,15S)-1-Amino-6-carbamoyl-15-(2-chloroacetamido)-12-(cyclohexylmethyl)-9-(naphthalen-2-ylmethyl)-1,8,11,14-tetraoxo-2,7,10,13-tetraazaoctadecan-18-oic acid] (ClAc-E[Cha][2Nal][Cit]-NH2) | > 10
15 | > 10 | NC(=O)NCCC[C@H](NC(=O)[C@H](Cc1ccc2ccccc2c1)NC(=O)c1ccccc1NC(=O)[C@H](CCC(=O)O)NC(=O)CCl)C(N)=O [Compound 2-16, (S)-5-((2-(((S)-1-(((S)-1-Amino-1-oxo-5-ureidopentan-2-yl)amino)-3-(naphthalen-2-yl)-1-oxopropan-2-yl)carbamoyl)phenyl)amino)-4-(2-chloroacetamido)-5-oxopentanoic acid] (ClAc-E[2Abz][2Nal][Cit]-NH2) | 
16 | 0.11 | NC(=O)NCCC[C@H](NC(=O)[C@H](Cc1ccc(C(=O)c2ccccc2)cc1)NC(=O)[C@@H]1CCCCN1C(=O)[C@H](CCC(=O)O)NC(=O)CCl)C(N)=O [Compound 2-17, (S)-5-((S)-2-(((S)-1-(((S)-1-Amino-1-oxo-5-ureidopentan-2-yl)amino)-3-(4-benzoylphenyl)-1-oxopropan-2-yl)carbamoyl)piperidin-1-yl)-4-(2-chloroacetamido)-5-oxopentanoic acid] (ClAc-E[Pip][Bpa][Cit]-NH2) | 
17 | 0.14 | COC(=O)CC[C@H](NC(=O)CCl)C(=O)N1CCCC[C@H]1C(=O)N[C@@H](Cc1ccc2ccccc2c1)C(=O)N[C@@H](CCCNC(N)=O)C(N)=O [Compound 2-18, Methyl (S)-5-((S)-2-(((S)-1-(((S)-1-amino-1-oxo-5-ureidopentan-2-yl)amino)-3-(naphthalen-2-yl)-1-oxopropan-2-yl)carbamoyl)piperidin-1-yl)-4-(2-chloroacetamido)-5-oxopentanoate] (ClAc-E(OMe)[Pip][2Nal][Cit]-NH2) | 
18 | > 10 | CC(=O)N[C@@H](CCC(=O)O)C(=O)N1CCCC[C@H]1C(=O)N[C@@H](Cc1ccc2ccccc2c1)C(=O)N[C@@H](CCCNC(N)=O)C(N)=O [Compound 2-19, (S)-4-Acetamido-5-((S)-2-(((S)-1-(((S)-1-amino-1-oxo-5-ureidopentan-2-yl)amino)-3-(naphthalen-2-yl)-1-oxopropan-2-yl)carbamoyl)piperidin-1-yl)-5-oxopentanoic acid] (Ac-E[Pip][2Nal][Cit]-NH2) | 
19 | 0.122 | C[C@H](O)[C@H](NC(=O)CCl)C(=O)N1CCCC[C@H]1C(=O)N[C@@H](Cc1c[nH]c2ccccc12)C(=O)N[C@@H](CCCNC(N)=O)C(N)=O [Compound 2-20, (S)—N—((S)-1-(((S)-1-Amino-1-oxo-5-ureidopentan-2-yl)amino)-3-(1H-indol-3-yl)-1-oxopropan-2-yl)-1-((2-chloroacetyl)-L-allothreonyl)piperidine-2-carboxamide] (ClAc-[aThr][Pip]W[Cit]-NH2) | 

Row | Compound | Ki (read-out: Ki, μM (FP Assay)) [µM] | Ki (Ki, μM (FP Assay)) [µM]
20 | COC(=O)CC[C@H](NC(=O)CCl)C(=O)N1CCCC[C@H]1C(=O)N[C@@H](Cc1c[nH]c2ccccc12)C(=O)N[C@@H](Cc1ccc(O)cc1)C(=O)NCc1ccc(C)cc1 (single isomer, unassigned) [Compound 11-26] | > 10 | 

Reference: US20210238225A1, “PEPTIDOMIMETIC INHIBITORS OF THE PEPTIDYL-PROLYL CIS/TRANS ISOMERASE (PIN1)” (DANA-FARBER CANCER INSTITUTE, INC., priority 2018, published 2021)
